How the values were obtained:
MCF-7 cells = test: Breast Cancer Cell Viability Assay (CellTiter-Glo); format: cell-based; conditions: 5 days of compound exposure; for IC50: Homo sapiens, MCF7, 120 h, read-out: MCF7 viab IC50
Method: The following day a 10 point, serial 1:5 dilution of each compound was added to the cells in 16 μL at a final concentration ranging from 10-0.00000 μM. After 5 days of compound exposure, 16 μL of CellTiter-GLo (Promega, Madison Wis.) was added to the cells, and the relative luminescence units (RLUs) of each well were determined. CellTiter-Glo added to 32 μL of medium without cells was used to obtain a background value.

ER-α = molecular target: T1, ER-α (Homo sapiens, UniProt P03372); test: ER-α In Cell Western Assay; format: cell-based; conditions: MCF7 cells, 4 hours post compound addition, SP1 anti-ER antibody; read-out: ICW (SP1) max response
T1 construct: MCF7 cells were trypsinized and washed twice; endogenous in cells; host or cells: MCF7 breast cancer cells
T1 sequence (P03372 1-595): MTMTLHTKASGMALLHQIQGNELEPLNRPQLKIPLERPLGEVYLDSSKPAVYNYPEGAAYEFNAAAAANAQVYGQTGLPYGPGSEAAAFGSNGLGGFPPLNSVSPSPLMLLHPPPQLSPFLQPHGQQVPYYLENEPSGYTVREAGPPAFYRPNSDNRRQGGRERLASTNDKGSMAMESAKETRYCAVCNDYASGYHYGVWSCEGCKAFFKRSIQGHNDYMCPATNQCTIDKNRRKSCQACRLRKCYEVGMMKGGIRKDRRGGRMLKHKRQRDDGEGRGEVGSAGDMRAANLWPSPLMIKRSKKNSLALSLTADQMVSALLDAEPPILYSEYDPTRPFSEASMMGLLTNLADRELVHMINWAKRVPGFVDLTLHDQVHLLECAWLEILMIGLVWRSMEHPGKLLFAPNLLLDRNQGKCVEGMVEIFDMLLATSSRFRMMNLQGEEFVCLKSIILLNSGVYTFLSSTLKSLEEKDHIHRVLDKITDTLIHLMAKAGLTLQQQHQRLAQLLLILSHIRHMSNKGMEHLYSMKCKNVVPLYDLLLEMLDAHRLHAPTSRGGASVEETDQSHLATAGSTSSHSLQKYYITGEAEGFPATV
Method: MCF7 cells were trypsinized and washed twice in Phenol Red Free RPMI containing 5% Charcoal Dextran Stripped serum with 20 mM HEPES and NEAA, then adjusted to a concentration of 200,000 cells per mL with the same medium. Next, 16 μL of the cell suspension (3200 cells) was added to each well of a poly-D-lysine coated 384 well plate, and the cells were incubated at 37° C. over 4 days to allow the cells to adhere and grow. […] At 4 hours post compound addition, the cells were fixed by adding 16 μL of 30% formalin to the 32 μL of cells and compound (10% formalin final concentration) for 20 minutes. Cells were then washed twice with PBS Tween 0.1% and then permeabilized in PBS 0.1% Triton (50 μl/well) for additional 15 minutes. The PBS 0.1% triton was decanted, and the cells were washed: LI-COR blocking buffer (50 μL/well) was added, the plate was spun at 3000 rpm, and then the blocking buffer was decanted. Additional LI-COR blocking buffer (50 μL/well) was added, and the cells were incubated overnight at 4° C. The blocking buffer was decanted, and the cells were incubated overnight at 4° C. with SP1 (Thermo Scientific) anti-ER rabbit monoclonal antibody diluted 1:1000 in LI-COR blocking buffer/0.1% Tween-20. Wells which were treated with blocking buffer with Tween but no antibody were used as a background control. Wells were washed twice with PBS Tween 0.1% to remove free SP1 antibodies, and the cells were incubated at room temp for 60-90 minutes in LI-COR goat anti-rabbit IRDye™ 800CW (1:1000) and DRAQ5 DNA dye (1:10000 of 5 mM stock solution) diluted in LI-COR blocking buffer containing 0.1% Tween-20 and 0.01% SDS. Cells were then washed with 0.1% Tween-20/PBS three times. Plates were scanned on a LI-COR Odyssey infrared imaging system. Integrated intensities in the 800 nm channel and 700 nm channel were measured to determine levels of ER-α and DNA respectively. Percent ER levels were determined as follows: (Integrated intensity […] sample/integrated intensity 700 nm sample)/(Integrated intensity 800 nm untreated cells/integrated intensity 700 nm untreated cells)×100=% ER levels.

Compound | IC50 (MCF-7 cells) [nM] | Emax (ER-α) [%] | MCF7 viab max response (MCF-7 cells)
CC1=C(c2ccc(O)cc2)C(c2ccc(OC[C@H](C)N3CC[C@@H](C)C3)cn2)Oc2ccc(O)cc21 (stereo partly drawn) [Example 8, 3-(4-Hydroxyphenyl)-4-methyl-2-(5-((S)-2-((R)-3-methylpyrrolidin-1-yl)propoxy)pyridin-2-yl)-2H-chromen-6-ol] | 1.36 | 85.9 | 69.3
CC1=C(c2ccc3cn[nH]c3c2)C(c2ccc(OC[C@H](C)N3CC[C@@H](C)C3)cc2)Oc2ccc(O)cc21 (stereo partly drawn) [Example 11, 3-(1H-Indazol-6-yl)-4-methyl-2-(4-((S)-2-((R)-3-methylpyrrolidin-1-yl)propoxy)phenyl)-2H-chromen-6-ol] | 17 | 74.1 | 55.8
CC1=C(c2ccc(O)c(F)c2)C(c2ccc(OC[C@H](C)N3CC[C@@H](C)C3)cn2)Oc2ccc(O)cc21 (stereo partly drawn) [Example 9, 3-(3-Fluoro-4-hydroxyphenyl)-4-methyl-2-(5-((S)-2-((R)-3-methylpyrrolidin-1-yl)propoxy)pyridin-2-yl)-2H-chromen-6-ol] | 1.03 | 88 | 71.6

These reach a lower IC50 (MCF-7 cells). Values come first.

IC50 (MCF-7 cells) [nM] | Emax (ER-α) [%] | Compound | MCF7 viab max response (MCF-7 cells)
0.9 | 85.1 | CC1=C(c2cccc3[nH]ncc23)C(c2ccc(OC[C@H](C)N3CC[C@@H](C)C3)cc2)Oc2ccc(O)cc21 (stereo partly drawn) [Example 13, 3-(1H-Indazol-4-yl)-4-methyl-2-(4-((S)-2-((R)-3-methylpyrrolidin-1-yl)propoxy)phenyl)-2H-chromen-6-ol] | 65.9
0.83 | 77.8 | CC1=C(c2cccc(O)c2)C(c2ccc(OC[C@H](C)N3CC[C@@H](C)C3)cc2)Oc2ccc3[nH]ncc3c21 (stereo partly drawn) [Example 14, 3-(9-Methyl-7-(4-((S)-2-((R)-3-methylpyrrolidin-1-yl)propoxy)phenyl)-3,7-dihydropyrano[3,2-e]indazol-8-yl)phenol] | 62.3
0.66 | 83.3 | CC1=C(c2cccc(O)c2)C(c2cnc(OC[C@H](C)N3CC[C@@H](C)C3)cn2)Oc2ccc(O)cc21 (stereo partly drawn) [Example 3, 3-(3-Hydroxyphenyl)-4-methyl-2-(5-((S)-2-((R)-3-methylpyrrolidin-1-yl)propoxy)pyrazin-2-yl)-2H-chromen-6-ol] | 61.1
0.46 | 79.5 | CC1=C(c2cccc(O)c2)C(c2ccc(OC[C@H](C)N3CC[C@@H](C)C3)cc2)Oc2c1ccc1[nH]ncc21 (stereo partly drawn) [Example 15, 3-(4-Methyl-2-(4-((S)-2-((R)-3-methylpyrrolidin-1-yl)propoxy)phenyl)-2,7-dihydropyrano[2,3-e]indazol-3-yl)phenol] | 65.6
0.36 | 70.1 | CC1=C(c2cccc(O)c2)C(c2cnc(OCCN3CCCC3)cn2)Oc2ccc(O)cc21 (stereo not drawn) [Example 4, 3-(3-Hydroxyphenyl)-4-methyl-2-(5-(2-(pyrrolidin-1-yl)ethoxy)pyrazin-2-yl)-2H-chromen-6-ol] | 49.5

— patent US10053451B2, “Heterocyclic estrogen receptor modulators and uses thereof” (priority 2015, dated 2018)
